Our source for the IC50 values is patent US12227501B2, “3-amino-2-[2-(acylamino)pyridin-4-yl]-1,5,6,7-tetrahydro-4h-pyrrolo[3,2-c]pyridin-4-one as CSNK1 inhibitors” (Bayer Aktiengesellschaft, priority 2019, dated 2025).

Like-named read-outs stand apart in the source and are kept apart here.

What all share (assay type): biochemical
Assay [1] deals with T1, human CSNK1A1 (Homo sapiens (Human), UniProt P48729). Put plainly: CSNK1A1 Assay 2 (ADP-Glo, 1 μM ATP). Conditions: substrate biotin-Ahx-KRRRAL-pS-VASLPGL, read-out: CSNK1A1 Assay 2 IC50 [mol/l] (median). The method, boiled down: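 Full-length human CSNK1A1 as an N-terminal GST fusion (baculovirus/insect cells) with biotinylated peptide substrate biotin-Ahx-KRRRAL-pS-VASLPGL and 1 μM ATP, in HEPES pH 7.5 buffer. Compounds were pre-incubated with enzyme (~0.0375 ng/μL) for 15 min at 22 °C. Generated ADP was read by ADP-Glo luminescence as the activity measure.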
A general note: In ADP-Glo the light output rises with the ADP produced.

Assay [2] deals with T1, human CSNK1A1. As to the kind of experiment: CSNK1A1 High ATP Assay (ADP-Glo, 1 mM ATP). Conditions: read-out: CSNK1A1 high ATP assay IC50 [mol/l] (median). The method, boiled down:
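GST-tagged full-length human CSNK1A1 from baculovirus-infected insect cells (typically about 0.4 ng/μL), pre-incubated with compound 15 min at 22 °C. Reaction with biotinylated peptide biotin-Ahx-KRRRAL-pS-VASLPGL at 1 mM ATP. ADP formed read by ADP-Glo luminescence.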

Assay [3] deals with human CSNK1D (Homo sapiens (Human), UniProt P48730). As to the kind of experiment: CSNK1D Assay (ADP-Glo, 1 μM ATP). Conditions: read-out: CSNK1D IC50 [mol/l] (median). The method, boiled down: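 GST-tagged full-length human CSNK1D from baculovirus-infected insect cells, typically ~0.5 ng/μL, with biotinylated peptide substrate and 1 μM ATP in HEPES pH 7.5 buffer. Compound is preincubated with enzyme 15 min at 22 °C. ADP formed is quantified by ADP-Glo luminescence.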

Assay [4] has as its target wild-type Epidermal Growth Factor Receptor (EGFR) (Homo sapiens (Human), UniProt P00533). Put plainly: WT-EGFR Kinase Assay (TR-FRET, 2 mM ATP). A general note: TR-FRET usually uses a lanthanide donor and a delayed reading to cut background.
Setting [5] is: read-out: EGFR Wildtyp- 2 mM ATP IC50 [mol/l] (median).

wild-type Epidermal Growth Factor Receptor (EGFR), sequence (P00533 669-1210): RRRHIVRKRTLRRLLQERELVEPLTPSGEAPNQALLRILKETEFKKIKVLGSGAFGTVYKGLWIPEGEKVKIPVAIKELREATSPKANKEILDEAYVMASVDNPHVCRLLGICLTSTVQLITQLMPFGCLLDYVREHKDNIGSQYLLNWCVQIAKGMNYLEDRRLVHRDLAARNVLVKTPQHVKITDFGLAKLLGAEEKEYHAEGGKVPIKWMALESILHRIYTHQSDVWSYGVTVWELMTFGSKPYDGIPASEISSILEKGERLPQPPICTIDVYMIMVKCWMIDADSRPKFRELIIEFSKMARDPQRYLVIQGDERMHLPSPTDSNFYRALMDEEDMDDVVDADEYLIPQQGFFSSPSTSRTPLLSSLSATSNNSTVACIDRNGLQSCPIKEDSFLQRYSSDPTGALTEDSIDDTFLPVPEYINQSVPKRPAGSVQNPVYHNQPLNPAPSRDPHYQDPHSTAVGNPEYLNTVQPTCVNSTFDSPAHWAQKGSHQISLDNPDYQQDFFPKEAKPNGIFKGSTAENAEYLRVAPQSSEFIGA
human CSNK1D, sequence (P48730 whole entry): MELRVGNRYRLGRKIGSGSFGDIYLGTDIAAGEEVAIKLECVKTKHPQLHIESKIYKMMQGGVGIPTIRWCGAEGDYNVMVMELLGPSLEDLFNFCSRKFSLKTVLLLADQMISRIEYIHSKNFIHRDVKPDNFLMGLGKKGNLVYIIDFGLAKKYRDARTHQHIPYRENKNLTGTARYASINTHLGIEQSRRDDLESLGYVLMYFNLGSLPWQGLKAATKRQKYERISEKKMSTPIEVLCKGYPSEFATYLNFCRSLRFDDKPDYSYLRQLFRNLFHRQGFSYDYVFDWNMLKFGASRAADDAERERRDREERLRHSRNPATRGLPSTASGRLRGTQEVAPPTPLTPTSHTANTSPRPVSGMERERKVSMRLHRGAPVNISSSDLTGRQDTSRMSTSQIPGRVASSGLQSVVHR
T1 sequence (P48729 whole entry, the tested form may be a part): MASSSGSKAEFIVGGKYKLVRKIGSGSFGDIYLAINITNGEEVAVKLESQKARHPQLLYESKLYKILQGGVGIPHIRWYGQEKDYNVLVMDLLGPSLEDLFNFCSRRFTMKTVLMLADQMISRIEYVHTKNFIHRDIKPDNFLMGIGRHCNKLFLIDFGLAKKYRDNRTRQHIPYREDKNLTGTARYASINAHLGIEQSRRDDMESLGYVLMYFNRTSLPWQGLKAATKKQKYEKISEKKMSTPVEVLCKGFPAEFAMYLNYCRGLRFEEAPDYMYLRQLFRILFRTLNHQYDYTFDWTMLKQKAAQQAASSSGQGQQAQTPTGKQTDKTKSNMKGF

Consider `O=C1NC2(CCC2)Cc2[nH]c(-c3ccnc(NC(=O)C(CC(F)F)c4ccc(F)cc4)c3)c(Nc3cccc(F)c3Cl)c21` (single isomer, unassigned; enantiomer 2) [Example 125, (+)-N-{4-[3′-(2-chloro-3-fluoroanilino)-4′-oxo-1′,4′,5′,7′-tetrahydrospiro[cyclobutane-1,6′-pyrrolo[3,2-c]pyridin]-2′-yl]pyridin-2-yl}-4,4-difluoro-2-(4-fluorophenyl)butanamide (Enantiomer 2)], for which the IC50 was 10.5 nM in assay [1], 12.1 nM in assay [2], 9.39 nM in assay [3] and over 20000 nM in assay [4] (setting [5]).
`CC1(C)Cc2[nH]c(-c3ccnc(NC(=O)C(CC(F)F)c4ccc(F)cc4)c3)c(Nc3cccc(F)n3)c2C(=O)N1` (single isomer, unassigned; enantiomer 2) [Example 130, 4,4-difluoro-2-(4-fluorophenyl)-N-(4-{3-[(6-fluoropyridin-2-yl)amino]-6,6-dimethyl-4-oxo-4,5,6,7-tetrahydro-1H-pyrrolo[3,2-c]pyridin-2-yl}pyridin-2-yl)butanamide (Enantiomer 2)]: the IC50 in assay [1] was 26.7 nM; in assay [2], 1340 nM; in assay [3], 71.6 nM; in assay [4] (setting [5]) it was over 20000 nM.
With `Cc1ccccc1Nc1c(-c2ccnc(NC(=O)C(C)c3ccc(F)cc3)c2)[nH]c2c1C(=O)NC(C)(C)C2` (single isomer, unassigned; enantiomer 2) [Example 134, N-{4-[6,6-dimethyl-3-(2-methylanilino)-4-oxo-4,5,6,7-tetrahydro-1H-pyrrolo[3,2-c]pyridin-2-yl]pyridin-2-yl}-2-(4-fluorophenyl)propanamide (Enantiomer 2)], the IC50 in assay [1] was 19.1 nM; in assay [2], 304 nM; in assay [3], 45.9 nM; in assay [4] (EGFR Wildtyp- 2 mM ATP IC50 [mol/l] (median)), over 20000 nM.
`Cc1ccccc1Nc1c(-c2ccnc(NC(=O)C(CC(F)F)c3ccc(F)cc3)c2)[nH]c2c1C(=O)NC(C)(C)C2` (single isomer, unassigned; enantiomer 2) [Example 137, N-{4-[6,6-dimethyl-3-(2-methylanilino)-4-oxo-4,5,6,7-tetrahydro-1H-pyrrolo[3,2-c]pyridin-2-yl]pyridin-2-yl}-4,4-difluoro-2-(4-fluorophenyl)butanamide (Enantiomer 2)]: the IC50 was 42.2 nM in assay [1], 451 nM in assay [2], 82.7 nM in assay [3] and over 20000 nM in assay [4] (setting [5]).
The like results for `CC1(C)Cc2[nH]c(-c3ccnc(NC(=O)C(CN)c4ccc(F)cc4)c3)c(Nc3ccccc3)c2C(=O)N1` (single isomer, unassigned; enantiomer 2) [Example 141, 3-amino-N-[4-(3-anilino-6,6-dimethyl-4-oxo-4,5,6,7-tetrahydro-1H-pyrrolo[3,2-c]pyridin-2-yl)pyridin-2-yl]-2-(4-fluorophenyl)propanamide (Enantiomer 2)] were, in that order, 57.8 nM, 599 nM, 127 nM and over 20000 nM.
As for `Cc1ccccc1Nc1c(-c2ccnc(NC(=O)C(CC(F)F)c3ccc(F)cc3)c2)[nH]c2c1C(=O)NC1(CCC1)C2` (single isomer, unassigned; enantiomer 2) [Example 145, (+)-4,4-difluoro-2-(4-fluorophenyl)-N-{4-[3′-(2-methylanilino)-4′-oxo-1′,4′,5′,7′-tetrahydrospiro[cyclobutane-1,6′-pyrrolo[3,2-c]pyridin]-2′-yl]pyridin-2-yl}butanamide-(Enantiomer 2)], the IC50 in assay [1] was 10.7 nM; in assay [2], 14.8 nM; in assay [3], 8.21 nM; in assay [4] (setting [5]), over 20000 nM.
